Test results as given in paper PMC9104950, “Stereoselective Covalent Adduct Formation of Acyl Glucuronide Metabolite of Nonsteroidal Anti-Inflammatory Drugs with UDP-Glucuronosyltransferase” (International Journal of Molecular Sciences, 2022).

Assays:
UGT2B7 = target: T1, UGT2B7 (Homo sapiens, UniProt P16662); test: Covalent adduct formation of NSAIDs-AG with UGT2B7; type: binding; conditions: 180 μM, UGT 3.4 μM, 6 h; for covalent adduct formation with UGT2B7: 37 °C
T1 construct: purchased Corning, Inc
T1 sequence (P16662 24-529): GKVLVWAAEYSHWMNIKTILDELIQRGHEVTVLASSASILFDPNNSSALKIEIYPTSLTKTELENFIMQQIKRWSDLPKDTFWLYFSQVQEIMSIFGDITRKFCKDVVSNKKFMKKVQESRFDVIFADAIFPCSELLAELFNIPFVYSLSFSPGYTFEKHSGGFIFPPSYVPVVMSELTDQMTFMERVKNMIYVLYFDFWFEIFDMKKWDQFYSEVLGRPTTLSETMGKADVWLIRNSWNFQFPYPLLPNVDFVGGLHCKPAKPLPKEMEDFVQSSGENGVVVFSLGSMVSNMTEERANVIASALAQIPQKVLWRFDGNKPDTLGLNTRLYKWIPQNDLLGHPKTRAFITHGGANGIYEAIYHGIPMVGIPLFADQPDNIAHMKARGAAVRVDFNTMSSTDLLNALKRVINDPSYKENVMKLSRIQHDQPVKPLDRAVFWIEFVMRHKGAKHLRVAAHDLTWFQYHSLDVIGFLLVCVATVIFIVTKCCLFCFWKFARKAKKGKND
Experimental: (§1) The concentrations of UGT were set at 3.4 μM by the preliminary experiments on the linearity of covalent adduct formation. The covalent adduct formation of NSAIDs-AG with organelle proteins and UGT was determined according to previous reports on NSAIDs-AG with albumin with some modifications. After a deproteinization of the reaction mixture, methanol/diethyl ether (3:1) was added to the pellet. […] The concentrations of the parent NSAIDs were measured using liquid chromatography-tandem mass spectrometry (LC-MS/MS). Aliquots of 10 μL were injected into the LC-MS/MS system. The LC-MS/MS equipment consisted of an LC system (UltiMate 3000 series, Thermo Fisher Scientific, Inc.) and TSQ Endura Triple Quadrupole Mass Spectrometer with electrospray ionization (Thermo Fisher Scientific, Inc.). Finnigan Xcalibur software (Thermo Fisher Scientific, Inc.) was used for data recording and analysis. Analysis was further performed using a reversed-phase column (COSMOSIL 5C18-MSII, 2.0 mm × 150 mm, 5 μm; Nacalai Tesque, Inc.). The column temperature was set to 40 °C, and the autosampler was maintained at 10 °C. The mobile phase (A; 30% methanol in 8.5 mM ammonium formate and 0.0075% formic acid, and B; 90% methanol in 8.5 mM ammonium formate and 0.0075% formic acid) was pumped at a flow rate of 0.2 mL/min. The initial mobile phase composition was maintained at 30% mobile phase B for 1 min, changed linearly to 90% mobile phase B from 1 to 8 min, maintained for 1 min, returned to 30% mobile phase B from 9 to 10 min, and maintained for 1 min for chromatographic column equilibrium. The MS scan was operated in positive ionization mode for DIC, MEF, ZOM, KET, and NAP, or negative ionization mode, for FLU. The conditions for electrospray ionization were set at 3500 V spray voltage for positive ionization mode and 2500 V spray voltage for negative ionization mode at 400 °C capillary temperature, and 300 °C vaporizer temperature with 40 arbitrary units of nitrogen sheath gas and 10 arbitrary units of auxiliary gas. The MS scan was operated in the positive or negative ionization mode. The selected reaction monitoring (SRM) mode was used, with argon as the collision gas at 1.5 mTorr. The mass resolution was set at 0.7 full-width at half-height (unit resolution). SRM transitions (precursor and product ions) were mass to charge ratios of (m/z) 296 > 214 for DIC (positive ionization mode), 294 > 250 for DIC (negative ionization mode), 242 > 224 for MEF, 292 > 139 for ZOM, 243 > 198 for R- and S-FLU, 255 > 209 for R- and S-KET, 231 > 185 for R- and S-NAP, and 302 > 220 for DIC-d4. The collision energies were 15 V for DIC (negative ionization mode), ZOM, MEF, FLU, KET, and NAP; 35 V for DIC (positive ionization mode); and DIC-d4. The concentrations of NSAIDs were determined from a single-point calibration in every assay for NSAIDs after confirmation of linearity between area and concentrations of NSAIDs.

UGT2B4 = target: T2, UGT2B4 (Homo sapiens, UniProt P06133); test: Covalent adduct formation of NSAIDs-AG with UGT2B4; type: binding; conditions: 180 μM, UGT 3.4 μM, 6 h
T2 construct: purchased Corning, Inc
T2 sequence (P06133 24-528): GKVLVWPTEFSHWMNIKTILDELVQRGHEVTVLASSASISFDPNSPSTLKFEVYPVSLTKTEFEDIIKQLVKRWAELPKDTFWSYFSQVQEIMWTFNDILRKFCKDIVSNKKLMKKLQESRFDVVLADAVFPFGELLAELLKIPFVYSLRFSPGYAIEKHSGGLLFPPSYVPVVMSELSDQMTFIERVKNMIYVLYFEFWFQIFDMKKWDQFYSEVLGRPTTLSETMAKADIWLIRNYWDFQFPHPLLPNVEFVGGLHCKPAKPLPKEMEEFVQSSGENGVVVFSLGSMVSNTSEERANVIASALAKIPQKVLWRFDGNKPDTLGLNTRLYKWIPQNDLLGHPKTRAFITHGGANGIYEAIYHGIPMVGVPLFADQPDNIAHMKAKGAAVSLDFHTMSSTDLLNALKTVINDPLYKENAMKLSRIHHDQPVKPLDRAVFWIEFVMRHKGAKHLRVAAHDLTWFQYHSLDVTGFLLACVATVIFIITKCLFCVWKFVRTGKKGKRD
Experimental: as §1

[1] = tested on: proteins of Nuc (nuclear fraction of liver homogenate); test: Covalent adduct formation of NSAIDs-AG with proteins of nuclear fraction (Nuc); type: binding, rat; conditions: 180 μM, 6 h; for covalent adduct formation with Nuc proteins: protein 1 mg/mL, 37 °C
[2] = tested on: proteins of Mic (microsomal fraction of liver homogenate); test: Covalent adduct formation of NSAIDs-AG with proteins of microsomal fraction (Mic); conditions: for covalent adduct formation with Mic proteins: protein 1 mg/mL
[3] = tested on: proteins of Cyt (cytosolic fraction of liver homogenate); test: Covalent adduct formation of NSAIDs-AG with proteins of cytosolic fraction (Cyt); type: binding, rat; conditions: 180 μM, 6 h; for covalent adduct formation with Cyt proteins: protein 1 mg/mL, 37 °C
[4] = tested on: proteins of Mit (mitochondrial fraction of liver homogenate); test: Covalent adduct formation of NSAIDs-AG with proteins of mitochondrial fraction (Mit); type: binding, rat; conditions: 180 μM, 6 h; for covalent adduct formation with Mit proteins: protein 1 mg/mL, 37 °C
UGT1A9 = target: T3, UGT1A9 (Homo sapiens, UniProt O60656); test: Covalent adduct formation of NSAIDs-AG with UGT1A9; type: binding; conditions: 180 μM, UGT 3.4 μM, 6 h
T3 construct: purchased Corning, Inc
T3 sequence (O60656 26-530): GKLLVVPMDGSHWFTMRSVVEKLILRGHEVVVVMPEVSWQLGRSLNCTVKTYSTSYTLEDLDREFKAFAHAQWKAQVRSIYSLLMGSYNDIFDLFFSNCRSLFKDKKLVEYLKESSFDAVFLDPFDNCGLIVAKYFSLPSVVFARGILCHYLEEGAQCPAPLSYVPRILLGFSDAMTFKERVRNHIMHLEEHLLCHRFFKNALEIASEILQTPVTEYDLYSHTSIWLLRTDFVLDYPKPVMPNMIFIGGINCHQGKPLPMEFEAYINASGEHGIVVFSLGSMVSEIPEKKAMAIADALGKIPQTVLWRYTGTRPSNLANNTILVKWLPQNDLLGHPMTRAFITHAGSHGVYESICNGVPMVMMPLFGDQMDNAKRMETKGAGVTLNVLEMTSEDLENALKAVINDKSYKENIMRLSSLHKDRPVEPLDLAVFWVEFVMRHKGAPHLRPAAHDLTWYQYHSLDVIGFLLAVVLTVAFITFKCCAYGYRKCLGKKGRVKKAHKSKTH
Experimental: as §1, with “The conditions for electrospray ionization were set at 3500 V spray voltage for positive ionization mode and 2500 V spray voltage for negative ionization mode at 400 °C capillary temperature, and 300 °C vaporizer temperature with 40 arbitrary units of nitrogen sheath gas and 10 arbitrary units of auxiliary gas. The MS scan was operated in the positive or negative ionization mode. The selected reaction monitoring (SRM) mode was used, with argon as the collision gas at 1.5 mTorr. The mass resolution was set at 0.7 full-width at half-height (unit resolution). SRM transitions (precursor and product ions) were mass to charge ratios of (m/z) 296 > 214 for DIC (positive ionization mode), 294 > 250 for DIC (negative ionization mode), 242 > 224 for MEF, 292 > 139 for ZOM, 243 > 198 for R- and S-FLU, 255 > 209 for R- and S-KET, 231 > 185 for R- and S-NAP, and 302 > 220 for DIC-d4. The collision energies were 15 V for DIC (negative ionization mode), ZOM, MEF, FLU, KET, and NAP; 35 V for DIC (positive ionization mode); and DIC-d4.” left out

[5] = set-up: method as in PMID 20606003, PMID 1673415; conditions: phosphate buffers (pH 7.4); cited from earlier work

covalent adduct formation with Nuc proteins [1]	covalent adduct formation with Mic proteins ([2]; 180 μM, 6 h, 37 °C)	covalent adduct formation with Cyt proteins [3]	covalent adduct formation with Mit proteins [4]	covalent adduct formation with UGT2B7 (UGT2B7)	SMILES	half-lives in buffers [5]	other results
–	–	–	–	–	CC(C(=O)OC1OC(C(=O)O)C(O)C(O)C1O)c1ccc(-c2ccccc2)c(F)c1 (stereo not drawn) [R-FLU-AG]	–	amounts of covalent adducts with UGT2B (UGT2B7) relative to UGT1A isoforms (UGT2B7): relatively higher amounts of covalent adducts; amounts of covalent adducts with UGT2B (UGT2B4) relative to UGT1A isoforms (UGT2B4): relatively higher amounts of covalent adducts
formed covalent adducts	formed covalent adducts	formed covalent adducts	formed covalent adducts	–	CC(C(=O)O[C@@H]1O[C@H](C(=O)O)[C@@H](O)[C@H](O)[C@H]1O)c1cccc(C(=O)c2ccccc2)c1 (stereo partly drawn) [KET-AG]	–	covalent adduct formation with UGT2B7 compared with the other diastereomer (UGT2B7; R vs S diastereomer): remarkably stereoselective formation of a covalent adduct; covalent adduct formation with UGT2B4 compared with the other diastereomer (UGT2B4; R vs S diastereomer): remarkably stereoselective formation of a covalent adduct
formed covalent adducts	formed covalent adducts	formed covalent adducts	formed covalent adducts	higher amounts of covalent adducts	O=C(Cc1ccccc1Nc1c(Cl)cccc1Cl)O[C@@H]1O[C@H](C(=O)O)[C@@H](O)[C@H](O)[C@H]1O [DIC-AG]	relatively short half-lives	capacity to form covalent adducts with UGT1A9 relative to mefenamic acid-AG (UGT1A9): approximately 10 times; amounts of covalent adducts with UGT2B7 compared with UGT1A9 (UGT2B7): significantly lower amounts of covalent adducts; capacity to form covalent adducts with UGT2B7 relative to mefenamic acid-AG (UGT2B7): approximately 10 times; covalent adducts with organelle proteins (Nuc) relative to R-KET-AG ([1]; 1 mg/mL): approximately twice as high; covalent adducts with organelle proteins (Mic) relative to R-KET-AG ([2]; 180 μM, 1 mg/mL, 6 h): approximately twice as high; number of covalent adducts with the proteins of Mic, effect of concentration and incubation time ([2]; DIC-AG 120-600 μM for 6 h, 180 μM for 1-24 h, Mic 1 mg/mL, 37 °C): increased in a concentration- and time-dependent manner; covalent adducts with organelle proteins (Cyt) relative to R-KET-AG ([3]; 1 mg/mL): approximately twice as high; covalent adducts with organelle proteins (Mit) relative to R-KET-AG ([4]; 1 mg/mL): approximately twice as high
–	–	–	–	higher amounts of covalent adducts	COc1ccc2cc(C(C)C(=O)O[C@@H]3O[C@H](C(=O)O)[C@@H](O)[C@H](O)[C@H]3O)ccc2c1 (stereo partly drawn) [NAP-AG]	relatively short half-lives	–
